A word on the MIC: it is the least concentration at which growth counts as inhibited. One may read the inhibition as the percentage by which the read-out fell short of the control.

Consider 1 compound from US7635493B2, “Herbal composition for Tinea infection” (Piramal Life Sciences Limited, priority 2005, dated 2009).

Data set [1] relates to dermatophytes. Conditions: Lloydia, 39(4), 218-222, (1976); cited from earlier work.
Data set [2] concerns Trichophyton mentagrophytes. Nature of the data set: In vitro anti-dermatophytic activity, agar dilution MIC. Format: cell-based. Conditions: T. mentagrophytes, Sabarouds agar, 28° C./48 h. As to the method: (§1) In vitro Assay Procedure.
(§2) Organisms: Trichophyton mentagrophytes & Microsporum gypseum.
(§3) Cultures were grown on PDA agar slants at 28° C. for 7 days. The growth was covered with sterile saline & scraped to get a growth suspension. The resulting mixture of conidia or sporangiospores & hypal fragments was transferred to a sterile test tube. The heavy particles were allowed to settle & upper homogenous suspension was transferred to another tube. These suspensions were adjusted to an optical density that ranged from 0.09 to 0.11 (80 to 82% transmittance) using a spectrophotometer. These stock suspensions were further diluted 1:10 with saline to obtain test inoculum (1×103 to 5×10^3 cfu/ml).
(§4) Ointment & Cream: A 100 mg/ml stock solution of ointment & cream of example 4 and 5 was prepared in demineralised water+0.01% Tween 20. Calculated amount of stock solution was added to 20 ml of Sabarouds melted agar medium & poured into petri plates so as to get a series of serial two fold dilution of the extract in the medium. Five concentrations of 100, 50, 25, 10 & 5 mg/ml were used for both formulations in initial study. A repeated study was carried out using lower concentrations of both the formulations. The concentrations used were 5, 1, 0.9, 0.8, 0.7, 0.6, 0.5, 0.4 0.3, 0.2 & 0.1 mg/ml.
(§5) Extract of Example 1 and Ethyl p-methoxycinnamate: […]
(In general: Agar dilution tests growth on a series of plates holding different concentrations.)

For data set [3], the system named is Microsporum gypseum. The data set is described as above. Conditions: Nannizzia gypsea; M. gypseum; Sabarouds agar, 28° C./48 h. It counts as cell-based. As to the method:
as §1, §2, §3, §4, §5

The subject of data set [4] is TNF-α. Nature of the data set: TNF-α production by LPS in human peripheral blood mononuclear cells (hPBMC), ELISA. Format: cell-based. As to the method:
Assay for Screening in Human Peripheral Blood Mononuclear Cells (hPBMCs). TNF-α production by Lipopolysaccharide (LPS) in hPBMC was measured according to the method described by Jansky, L. et al (Physiol. Res. 52, 593-598, (2003)). Blood was collected from healthy donors into vacutainer tubes coated with potassium EDTA (Vacutest Plast) and diluted 1:2 with Dulbecco's Phosphate Buffered Saline (DPBS) (Sigma Aldrich, St. Louis, Mo.). The PBMC were harvested from human blood and suspended in RPMI 1640 culture medium (Gibco BRL, Pasley, UK) containing 10% fetal bovine serum (FBS) (Hyclone, Utah, USA), 100 U/ml penicillin (Sigma Chemical Co. St Louis, Mo.) and 100 μg/ml streptomycin (Sigma Chemical Co. St Louis, Mo.). The cell concentration was adjusted to 1×10^6 cells/ml. The cell suspension (100 μl) was added to the wells of a 96-well culture plate. Following cell plating, 79 μl of the culture medium and 1 μl of eight different concentrations of the test samples (10 to 100 μg/ml) dissolved in dimethylsulfoxide (DMSO, Sigma, Mo., USA) were added to the cells. The final concentration of DMSO was adjusted to 0.5-1%. Rolipram (100 μM) was used as a standard compound. The plates were incubated for 30 min at 37° C. in an atmosphere of 5% CO2. Finally, 20 μl (10 μg/ml) per well of LPS, (Escherchia coli 0127:B8, Sigma Chemical Co., St. Louis, Mo.) was added, to obtain a final concentration of 2 μg/ml. The plates were incubated at 37° C. for 5 h in an atmosphere of 5% CO2. Supernatants were harvested and assayed for % TNF-α inhibition by ELISA as described by the manufacturer (R&D Systems, MN) or by cytotoxicity bioassay in L929 cells.

Data set [5] deals with L929 cells. Nature of the data set: Cytotoxicity in L929 cell lines. Format: cell-based. Set-up: Cytotoxicity in L929 cell lines: unit not given here.

Converted amounts (≈) assume the structure as drawn.

On to `CCOC(=O)C=Cc1ccc(OC)cc1` [Ethyl p-methoxycinnamate], for which the “Anti-dermatophytic activity (reported)” value in data set [1] was “reported to be anti-dermatophytic”. Further, the minimal inhibitory concentration (MIC) in data set [2] and in data set [3] was 30 µg/mL (≈ 145 µM) in each case. Also, in data set [4] (PBMC, sample concentration 10 μg/ml, LPS-stimulated human cells, 5 h), the inhibition at 10 µg/mL came to 0%. Further, the inhibition at 100 µg/mL in data set [4] (PBMC, sample concentration 100 μg/ml, LPS-stimulated human cells, 5 h) came to 80%. Moreover, the “TNF alpha activity inhibition (conclusion in words)” value in data set [4] (conclusion from table 1) is “inhibit TNF alpha activity”. Also, the “Cytotoxicity in L929 cell lines” value in data set [5] (10 μg/ml, 3.5 h) was determined as 20; in data set [5] (10 μg/ml, 24 h), 27; in data set [5] (100 μg/ml, 3.5 h) it was 12; in data set [5] (100 μg/ml, 24 h), 02. The “Cytotoxicity (conclusion in words)” value in data set [5] (as measured in L929 cell lines) was “low cytotoxicity”.
